Source: patent US7985755B2, “2,4-diaminoquinazolines for spinal muscular atrophy” (Families of Spinal Muscular Atrophy, priority 2006, dated 2011)
Structures can show the parent of a compound that is named as a salt. Where two headings read alike, the source gives them in different places.

Experiments:
[1] = target: T1, Human, recombinant dihydrofolate reductase (Homo sapiens, UniProt P00374); test: Human DHFR assay; assay type: biochemical
T1 construct: purchased Sigma D6566
T1 sequence (P00374 1-187): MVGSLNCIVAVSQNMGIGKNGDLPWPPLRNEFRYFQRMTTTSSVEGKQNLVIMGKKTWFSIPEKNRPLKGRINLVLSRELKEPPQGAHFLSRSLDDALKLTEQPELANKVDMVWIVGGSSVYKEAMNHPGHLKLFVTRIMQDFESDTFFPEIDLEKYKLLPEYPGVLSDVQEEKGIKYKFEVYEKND
Procedure: The assay is an adaptation for 96-well plate format from Appleman et al. (Appleman, J R; Howell, E E; Kraut, J; Kuhl, M and Blakley, R L (1988) J. Biol. Chem. 263, 9187-9198). Human, recombinant dihydrofolate reductase (Sigma, D6566) was incubated along with test compounds ([…]) and NADPH (Sigma, N-7505) in 96-well plates. After a 10 min. pre-incubation at room temperature, dihydrofolic acid (Sigma, D7006) was added and the kinetic traces at 340 nm measured on a Spectra Max 190 plate reader at room temperature. Reaction rates were determined from the slopes of the linear portions of the progress curves. The final assay conditions were 0.014 units DHFR, 300 μM NADPH, 30 μM Dihydrofolic acid, 50 mM TRIS, pH 7.6, 100 mM NaCl and 1.25% DMSO. Each compound was measured in duplicates on every assay plate. Each assay plate contained 12 positive controls (DMSO only) and 12 negative controls (no dihydrofolic acid). All data was percent normalized with respect to controls and presented as percent inhibition. Inhibition data was analyzed using Prism and fit to a standard 4-parameter logistic equation to calculate IC50 values.

SMN2 promoter = SMN2 promoter assay in NSC-34 cells (β-lactamase reporter); assay type: cell-based, mouse
From the text: All compounds were screened using an in vitro based SMN2 promoter assay. We used NSC-34 cells, a hybrid cell line between mouse spinal cord cells and mouse neuroblastoma cells. NSC-34 cells harbor an expression plasmid containing a 3.4 kb promoter fragment of the SMN2 gene driving β-lactamase expression.
[…] […] CCF2-AM diffuses across the plasma membrane and is converted into an active β-lactamase substrate by cytoplasmic esterase. […] The fold induction is proportional to the extent of β-lactamase produced and in turn proportional to SMN2 promoter activation for a given compound relative to vehicle (DMSO) control. […] These values are used to rank activities of the compounds and derive structure activity relationship.

[2] = Mus musculus, Table 3, SMN2 promoter driving β-lactamase, read-out: Promoter Assay EC50
[3] = Mus musculus, Table 1, SMN2 promoter driving β-lactamase, 12 point dose curve, read-out: Promoter Assay EC50
[4] = Table 1, SMN2 promoter driving β-lactamase, 12 point dose curve, read-out: Promoter Assay EC50
[5] = Table 3, SMN2 promoter driving β-lactamase, read-out: Promoter Assay EC50
[6] = Mus musculus, Table 4, SMN2 promoter driving β-lactamase, read-out: Promoter Assay EC50 for 2391.003C(P)
[7] = Mus musculus, Table 6, SMN2 promoter driving β-lactamase, read-out: Promoter Assay EC50

Row | Compound | EC50 (SMN2 promoter; [4]) [nM] | further results
1 | Nc1nc(N)c2c(OCC3CCN(c4ccccc4F)CC3)cccc2n1 [Examplc-155, 5-[1-(2-Fluorophenyl)piperidin-4-ylmethoxy]quinazoline-2,4-diamine] |  | IC50 ([1]; Table 3, read-out: hDHFR IC50): < 20 µM; EC50 (SMN2 promoter; [2]): < 1000 nM
2 | CC(C)(C)OC(=O)N1CCN(CCOc2cccc3nc(N)nc(N)c23)CC1 [Examplc-205, 4-[2-(2,4-Diamino-quinazolin-5-yloxy)-ethyl]-piperazine-1-carboxylic Acid tert-butyl Ester] |  | IC50 ([1]; Table 5, read-out: hDHFR IC50): < 20 µM; EC50 (SMN2 promoter; Mus musculus, Table 5, SMN2 promoter driving β-lactamase, read-out: Promoter Assay EC50): < 1000 nM
3 | Nc1nc(N)c2c(OCC3CCN(Cc4ccccc4F)CC3)cccc2n1 [Example-001] |  | IC50 ([1]; Table 1, read-out: hDHFR IC50): 20 to 100 µM
4 | Nc1nc(N)c2c(OCC3CCN(Cc4cccc(Cl)c4)CC3)cccc2n1 [Example-002, 5-[1-(3-chlorobenzyl)-piperidin-4-ylmethoxy]-quinazoline-2,4-diamine] |  | IC50 ([1]; Table 1, read-out: hDHFR IC50): < 20 µM; EC50 (SMN2 promoter; [3]): < 1000 nM
5 | Nc1nc(N)c2c(OCC3CCN(Cc4ccc(Cl)c(Cl)c4)CC3)cccc2n1 [Example-038] |  | IC50 ([1]; Table 1, read-out: hDHFR IC50): < 20 µM
6 | CC(=O)Nc1nc(CN2CCC(COc3cccc4nc(N)nc(N)c34)CC2)cs1 [Example-094] | < 1000 | 
7 | Nc1nc(N)c2c(OCC3CCN(CC4COc5ccccc5O4)CC3)cccc2n1 (stereo not shown) [Example-096] | < 1000 | 
8 | Nc1nc(N)c2c(OCC3CCN(Cc4ccc(OC(F)(F)F)cc4)CC3)cccc2n1 [Example-102] | < 1000 | 
9 | Nc1nc(N)c2c(OCC3CCN(Cc4cccc(OC(F)(F)F)c4)CC3)cccc2n1 [Example-103] | < 1000 | 
10 | Nc1nc(N)c2c(OCC3CCN(Cc4ccc(Cl)cc4Cl)CC3)cccc2n1 [Example-104] | < 1000 | 
11 | Nc1nc(N)c2c(OCC3CCN(C(=O)c4ccc5c(c4)OCO5)CC3)cccc2n1 [Example-105] | < 1000 | 
12 | Nc1nc(N)c2c(OCC3CCN(C(=O)c4c(F)cccc4F)CC3)cccc2n1 [Example-107] | < 1000 | 
13 | Nc1nc(N)c2c(OCC3CCN(C(=O)c4c(Cl)cccc4Cl)CC3)cccc2n1 [Example-108] | < 1000 | 
14 | Nc1nc(N)c2c(OCC3CCN(C(=O)c4ccc(Cl)c(Cl)c4)CC3)cccc2n1 [Example-109] | < 1000 | 
15 | Nc1nc(N)c2c(OCC3CCN(C(=O)c4cccc(C(F)(F)F)c4F)CC3)cccc2n1 [Example-110] | < 1000 | 
16 | Nc1nc(N)c2c(OCC3CCN(S(=O)(=O)c4ccc(F)cc4)CC3)cccc2n1 [Example-111] | < 1000 | 
17 | COc1cccc(CN2CCC(COc3cccc4nc(N)nc(N)c34)CC2)c1 [Example-114] | < 1000 | 
18 | Nc1nc(N)c2c(OCC3CCN(Cc4cc(Cl)cc(Cl)c4)CC3)cccc2n1 [Example-116] | < 1000 | 
19 | Nc1nc(N)c2c(OCC3CCN(Cc4ccccn4)CC3)cccc2n1 [Example-118] | < 1000 | 
20 | Nc1nc(N)c2c(OCC3CCN(Cc4ccncc4)CC3)cccc2n1 [Example-119] | < 1000 | 
21 | COc1ccc(CN2CCC(COc3cccc4nc(N)nc(N)c34)CC2)cc1F [Example-122] | < 1000 | 
22 | Nc1nc(N)c2c(OCC3CCN(Cc4ccc(C(F)(F)F)cc4)CC3)cccc2n1 [Example-123] | < 1000 | 
23 | COc1ccc(CN2CCC(COc3cccc4nc(N)nc(N)c34)CC2)cc1 [Example-124] | < 1000 | 
24 | CC(C)(C)c1ccc(CN2CCC(COc3cccc4nc(N)nc(N)c34)CC2)cc1 [Example-129] | < 1000 | 
25 | Nc1nc(N)c2c(OCC3CCN(Cc4cccc(C(F)(F)F)c4)CC3)cccc2n1 [Example-130] | < 1000 | 
26 | Nc1nc(N)c2c(OCC3CCN(Cc4ccccc4C(F)(F)F)CC3)cccc2n1 [Example-131] | < 1000 | 

Row | Compound | EC50 (SMN2 promoter; [4]) [nM] | further results
27 | Nc1nc(N)c2c(OCC3CCN(Cc4cccc(F)c4)CC3)cccc2n1 [Example-132] | < 1000 | 
28 | COc1cc(CN2CCC(COc3cccc4nc(N)nc(N)c34)CC2)cc(OC)c1 [Example-133] | < 1000 | 
29 | Nc1nc(N)c2c(OCC3CCN(Cc4cccs4)CC3)cccc2n1 [Example-135] | < 1000 | 
30 | Nc1nc(N)c2c(OCC3CCN(Cc4cc(F)cc(F)c4)CC3)cccc2n1 [Example-137] | < 1000 | 
31 | Nc1nc(N)c2c(OCC3CCN(Cc4ccsc4)CC3)cccc2n1 [Example-145] | < 1000 | 
32 | Cc1ccc(C)c(CN2CCC(COc3cccc4nc(N)nc(N)c34)CC2)c1 [Example-146] | < 1000 | 
33 | Nc1nc(N)c2c(OCC3CCN(Cc4cc(F)c(F)c(F)c4)CC3)cccc2n1 [Example-148] | < 1000 | 
34 | Nc1nc(N)c2c(OCC3CCN(Cc4ccc(F)cc4)CC3)cccc2n1 [Example-149] | < 1000 | 
35 | Cn1ccnc1CN1CCC(COc2cccc3nc(N)nc(N)c23)CC1 [Example-152] | 1000 to 5000 | 
36 | COC(=O)c1cccc(CN2CCC(COc3cccc4nc(N)nc(N)c34)CC2)c1 [Example-156] |  | EC50 (SMN2 promoter; [5]): < 1000 nM
37 | COC(=O)c1ccc(CN2CCC(COc3cccc4nc(N)nc(N)c34)CC2)cc1 [Example-157] |  | EC50 (SMN2 promoter; [5]): < 1000 nM
38 | Nc1nc(N)c2c(OCC3CCN(c4ccccc4Cl)CC3)cccc2n1 [Example-163, 5-[1-(2-Chlorophenyl)piperidin-4-ylmethoxy]quinazoline-2,4-diamine] |  | EC50 (SMN2 promoter; [2]): < 1000 nM
39 | Nc1nc(N)c2c(N3CCN(Cc4ccccc4)CC3)cccc2n1 [Example-169, 5-(4-Benzyl-piperazin-1-yl)-quinazoline-2,4-diamine] |  | EC50 (SMN2 promoter; [6]): 1000 to 5000 nM
40 | Nc1nc(N)c2c(N3CCN(Cc4ccc(Cl)cc4)CC3)cccc2n1 [Example-173, 5-[4-(4-Chloro-benzyl)-piperazin-1-yl]-quinazoline-2,4-diamine] |  | EC50 (SMN2 promoter; [6]): < 1000 nM
41 | Nc1nc(N)c2c(N3CCN(Cc4ccccc4F)CC3)cccc2n1 [Example-176, 5-[4-(2-Fluoro-benzyl)-piperazin-1-yl]-quinazoline-2,4-diamine] |  | EC50 (SMN2 promoter; [6]): 1000 to 5000 nM
42 | Nc1nc(N)c2c(N3CCN(Cc4ccc(F)cc4F)CC3)cccc2n1 [Example-177, 5-[4-(2,4-Difluoro-benzyl)-piperazin-1-yl]-quinazoline-2,4-diamine] |  | EC50 (SMN2 promoter; [6]): < 1000 nM
43 | Nc1nc(N)c2c(N3CCN(Cc4ccc5c(c4)OCO5)CC3)cccc2n1 [Example-182, 5-(4-Benzo[1,3]dioxol-5-ylmethyl-piperazin-1-yl)-quinazoline-2,4-diamine] |  | EC50 (SMN2 promoter; [6]): < 1000 nM
44 | Cc1cccc(CN2CCN(c3cccc4nc(N)nc(N)c34)CC2)c1F [Example-183, 5-[4-(2-Fluoro-3-methyl-benzyl)-piperazin-1-yl]-quinazoline-2,4-diamine] |  | EC50 (SMN2 promoter; [6]): < 1000 nM
45 | Nc1nc(N)c2c(N3CCN(Cc4ccc5ccccc5c4)CC3)cccc2n1 [Example-204, 5-(4-Naphthalen-2-ylmethyl-piperazin-1-yl)-quinazoline-2,4-diamine hydrochloride] |  | EC50 (SMN2 promoter; [6]): 1000 to 5000 nM
46 | Nc1nc(N)c2c(N3CCNCC3)cccc2n1 [Example-220, 5-piperazin-1-ylquinazoline-2,4-diamine] |  | EC50 (SMN2 promoter; [6]): < 1000 nM
47 | Nc1nc(N)c2c(OCC3CCN(Cc4cccc(C(=O)O)c4)CC3)cccc2n1 [Example-222, 3-[4-(2,4-Diamino-quinazolin-5-yloxymethyl)-piperidin-1-ylmethyl]-benzoic acid] |  | EC50 (SMN2 promoter; [3]): 1000 to 5000 nM
48 | Nc1nc(N)c2c(OCC3CCN(Cc4ccc(C(=O)O)cc4)CC3)cccc2n1 [Example-223, 4-[4-(2,4-Diamino-quinazolin-5-yloxymethyl)-piperidin-1-ylmethyl]-benzoic Acid] |  | EC50 (SMN2 promoter; [3]): 1000 to 5000 nM
49 | CC(C)(Oc1cccc2nc(N)nc(N)c12)C1CCN(Cc2c(Cl)cccc2Cl)CC1 [Example-224, 5-{1-[1-(2,6-Dichloro-benzyl)-piperidin-4-yl]-1-methyl-ethoxy}-quinazoline-2,4-diamine] |  | EC50 (SMN2 promoter; [7]): < 1000 nM
50 | CC(C)(Oc1cccc2nc(N)nc(N)c12)C1CCN(Cc2c(F)cccc2Cl)CC1 [Example-225, 5-{1-[1-(2-Chloro-6-fluoro-benzyl)-piperidin-4-yl]-1-methyl-ethoxy}-quinazoline-2,4-diamine] |  | EC50 (SMN2 promoter; [7]): < 1000 nM
51 | CC1CC(COc2cccc3nc(N)nc(N)c23)CC(C)N1Cc1ccccc1F (stereo not shown) [Example-226, 5-[1-(2-Fluoro-benzyl)-2,6-dimethyl-piperidin-4-ylmethoxy]-quinazoline-2,4-diamine] |  | EC50 (SMN2 promoter; [7]): < 1000 nM
52 | CC1CC(COc2cccc3nc(N)nc(N)c23)CC(C)N1Cc1c(F)cccc1Cl (stereo not shown) [Example-227, 5-[1-(2-Chloro-6-fluoro-benzyl)-2,6-dimethyl-piperidin-4-ylmethoxy]-quinazoline-2,4-diamine] |  | EC50 (SMN2 promoter; [7]): < 1000 nM
